The term Kd denotes the constant that tells how readily two partners part at equilibrium. By IC50 is commonly meant the point on the concentration scale where inhibition reaches its midpoint.

Each structure is given as a SMILES string. Like-named read-outs stand apart in the source and are kept apart here. Marks after values point to notes of the source that are not given here.

For assay [1], the target named is wild type human RORγt ligand binding domain (RORγt LBD) (Homo sapiens (Human), UniProt P51449). Particulars: read-out: ThermoFluor® Assay, Kd. The procedure: This approach is applicable to a wide variety of systems, and rigorous in theoretical interpretation through quantitation of equilibrium binding constants (KD).
Chain of wild type human RORγt ligand binding domain (RORγt LBD) (P51449 other isoform, or with tags, fused parts or gaps): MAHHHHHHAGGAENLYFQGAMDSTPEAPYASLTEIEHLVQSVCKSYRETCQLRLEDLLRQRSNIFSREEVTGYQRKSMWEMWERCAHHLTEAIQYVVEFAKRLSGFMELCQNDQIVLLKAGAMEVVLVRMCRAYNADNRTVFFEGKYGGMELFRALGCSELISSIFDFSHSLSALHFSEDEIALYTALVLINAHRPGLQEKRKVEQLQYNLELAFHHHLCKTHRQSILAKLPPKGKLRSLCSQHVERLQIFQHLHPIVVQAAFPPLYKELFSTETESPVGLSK
The shift in the melting point described as a ΔTm is proportional to the concentration and affinity of the ligand.
RORγt ThermoFluor® Assay Construct
ThermoFluor® experiments were carried out using instruments owned by Janssen Research and Discovery, L.L.C. through its acquisition of 3-Dimensional Pharmaceuticals, Inc. 1,8-ANS (Invitrogen) was used as a fluorescent dye. Protein and compound solutions are dispensed into black 384-well polypropylene PCR microplates (Abgene) and overlayed with silicone oil (1 μL, Fluka, type DC 200) to prevent evaporation.
Fluorescence was measured by continuous illumination with UV light (Hamamatsu LC6) supplied via fiber optic and filtered through a band-pass filter (380-400 nm; >6 OD cutoff). Fluorescence emission of the entire 384-well plate was detected by measuring light intensity using a CCD camera (Sensys, Roper Scientific) filtered to detect 500±25 nm, resulting in simultaneous and independent readings of all 384 wells. Images were collected at each temperature, and the sum of the pixel intensity in a given area of the assay plate was recorded versus temperature. Reference wells contained RORγt without compounds, and the assay conditions were as follows: • 0.065 mg/mL RORγt • 60 μM 1,8-ANS • 100 mM Hepes, pH 7.0 • 10 mM NaCl • 2.5 mM GSH • 0.002% Tween-20
On the technique in general: Differential scanning fluorimetry follows unfolding on heating by fluorescence.

Assay [2] concerns the target T1, full-length human RORγt (Homo sapiens (Human), UniProt P51449). The class given is cell-based. Particulars: for IC50: HEK293T cells, Conditions A, read-out: RORγt (FL) Reporter Assay A, IC50. (In general: Reporter assays use an easily measured gene product as a stand-in for the process of interest.)
Description: (§1) RORγt (full-length human) Reporter Assay:
Luminescence was measured using a BMG LUMIstar OPTIMA plate reader, after addition of 75 μL/well firefly luciferase buffer, followed by 75 μL/well Renilla luciferase buffer.
Assay [3] has as its system IL-17 production by CD4 T cells. Put plainly: Human Th17 Assay. Type of assay: cell-based. As to conditions: 72 h, read-out: Human Th17 Assay, IC50. An excerpt: Human Th17 Assay The human Th17 assay tests the effect of RORγt modulatory compounds on IL-17 production by CD4 T cells under conditions which favor Th17 differentiation. Total CD4+ T cells were isolated from the peripheral blood mononuclear cells (PBMC) of healthy donors using a CD4+ T cell isolation kit II, following the manufacturer's instructions (Miltenyi Biotec). […] The final concentrations of antibodies and cytokines (R&D Systems) in differentiation medium were: 3×10^6/mL anti-CD3/CD28 beads (prepared using human T cell activation/expansion kit, Miltenyi Biotec), 10 μg/mL anti-IL4, 10 μg/mL anti-IFNγ, 10 ng/mL IL113, 10 ng/mL IL23, 50 ng/mL IL6, 3 ng/mL TGFβ and 20 U/mL IL2. Cells were cultured at 37° C. and 5% CO2 for 3 days. Supernatants were collected and the accumulated IL-17 in culture was measured by using MULTI-SPOT® Cytokine Plate following manufacture's instruction (Meso Scale Discovery). The plate was read using Sector Imager 6000, and IL-17 concentration was extrapolated from the standard curve. The IC50s were determined by GraphPad.

In assay [4] the target is T1, full-length human RORγt. Particulars: for IC50: read-out: RORγt (FL) Reporter Assay B or C, IC50, HEK293T cells, Conditions B or C.
Excerpt: as §1
All three provide similar data and can be used interchangeably.
Where [5] appears, read: *** 0.67 μM compound concentration.

T1 sequence (P51449 other isoform, or with tags, fused parts or gaps): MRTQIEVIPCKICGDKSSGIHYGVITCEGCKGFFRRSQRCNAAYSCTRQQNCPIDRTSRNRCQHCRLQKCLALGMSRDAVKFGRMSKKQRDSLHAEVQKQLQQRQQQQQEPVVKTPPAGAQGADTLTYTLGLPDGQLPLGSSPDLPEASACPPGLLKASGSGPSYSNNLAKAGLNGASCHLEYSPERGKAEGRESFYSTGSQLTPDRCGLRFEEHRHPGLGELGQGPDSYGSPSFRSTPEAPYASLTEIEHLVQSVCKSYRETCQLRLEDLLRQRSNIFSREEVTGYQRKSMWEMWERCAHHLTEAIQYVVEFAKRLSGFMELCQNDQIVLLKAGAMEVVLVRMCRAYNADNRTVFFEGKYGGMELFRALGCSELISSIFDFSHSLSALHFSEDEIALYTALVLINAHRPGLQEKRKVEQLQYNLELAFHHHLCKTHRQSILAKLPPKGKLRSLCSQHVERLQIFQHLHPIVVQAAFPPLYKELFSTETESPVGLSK

In the case of `C[C@H]1C[C@@H](F)CCN1C(=O)c1nc(C(=O)NCC(C)(C)O)sc1-c1ccc(C(O)(C(F)(F)F)C(F)(F)F)c(Cl)c1Cl` [Example 2/1, 5-(2,3-Dichloro-4-(1,1,1,3,3,3-hexafluoro-2-hydroxypropan-2-yl)phenyl)-4-((2S,4S)-4-fluoro-2-methylpiperidine-1-carbonyl)-N-(2-hydroxy-2-methylpropyl)thiazole-2-carboxamide], in assay [1], the Kd was found to be 0.16 nM. The “RORγt (FL) Reporter Assay A, % inhibition” value at full-length human RORγt [2] (** 2 μM compound concentration) is listed as 103** %. In addition, the IC50 on full-length human RORγt [2] stood at 14 nM.

For the molecule `C[C@H]1CC(F)(F)CN1C(=O)c1nc(C(=O)NCC(C)(C)O)sc1-c1ccc(C(O)(C(F)(F)F)C(F)(F)F)c(Cl)c1Cl` [Example 2/2, (S)-5-(2,3-Dichloro-4-(1,1,1,3,3,3-hexafluoro-2-hydroxypropan-2-yl)phenyl)-4-(4,4-difluoro-2-methylpyrrolidine-1-carbonyl)-N-(2-hydroxy-2-methylpropyl)thiazole-2-carboxamide], the Kd in assay [1] was 0.22 nM. At full-length human RORγt [2] (setting [5]), the “RORγt (FL) Reporter Assay A, % inhibition” value is on record as 101*** %. In addition, on full-length human RORγt [2], the concentration for half-maximal inhibition (IC50) amounted to 10 nM.

As for `C[C@H]1CCCN1C(=O)c1nc(C(=O)NCC(C)(C)O)sc1-c1ccc(C(O)(C(F)(F)F)C(F)(F)F)c(Cl)c1Cl` [Example 2/8, (S)-5-(2,3-Dichloro-4-(1,1,1,3,3,3-hexafluoro-2-hydroxypropan-2-yl)phenyl)-N-(2-hydroxy-2-methylpropyl)-4-(2-methylpyrrolidine-1-carbonyl)thiazole-2-carboxamide], at full-length human RORγt [2] (** 2 μM compound concentration), the “RORγt (FL) Reporter Assay A, % inhibition” value is 103** %. Also, the half-maximal inhibitory concentration (IC50) in assay [3] came to 17 nM. Also, the “RORγt (FL) Reporter Assay B or C, % inhibition” value on full-length human RORγt [4] (** 2 μM compound concentration) is 108** %.

With `CC(C)(O)CNC(=O)c1nc(C(=O)N2CCC(F)CC2)c(-c2ccc(C(O)(C(F)(F)F)C(F)(F)F)c(Cl)c2Cl)s1` [Example 2/10, 5-(2,3-Dichloro-4-(1,1,1,3,3,3-hexafluoro-2-hydroxypropan-2-yl)phenyl)-4-(4-fluoropiperidine-1-carbonyl)-N-(2-hydroxy-2-methylpropyl)thiazole-2-carboxamide], the Kd in assay [1] was found to be 13 nM. Besides, the “RORγt (FL) Reporter Assay A, % inhibition” value on full-length human RORγt [2] (** 2 μM compound concentration) is reported as 105** %. Moreover, at full-length human RORγt [2], the IC50 amounted to 25 nM.

As to `CN(C(=O)c1nc(C(=O)NCC(C)(C)O)sc1-c1ccc(C(O)(C(F)(F)F)C(F)(F)F)c(Cl)c1Cl)C1CCC1` [Example 2/13, N^4—Cyclobutyl-5-(2,3-dichloro-4-(1,1,1,3,3,3-hexafluoro-2-hydroxypropan-2-yl)phenyl)-N^Z-(2-hydroxy-2-methylpropyl)-N^4-methylthiazole-2,4-dicarboxamide], the dissociation constant (Kd) in assay [1] was determined as 0.43 nM. For the same molecule, the “RORγt (FL) Reporter Assay A, % inhibition” value on full-length human RORγt [2] (setting [5]) is given as 103*** %. Also, the IC50 at full-length human RORγt [2] is 10 nM.

With `CCN(C(=O)c1nc(C(=O)NCC(C)(C)O)sc1-c1ccc(C(O)(C(F)(F)F)C(F)(F)F)c(Cl)c1Cl)C1CCC1` [Example 2/15, N^4—Cyclobutyl-5-(2,3-dichloro-4-(1,1,1,3,3,3-hexafluoro-2-hydroxypropan-2-yl)phenyl)-N^4-ethyl-N2-(2-hydroxy-2-methylpropyl)thiazole-2,4-dicarboxamide], the Kd in assay [1] was 0.18 nM. The “RORγt (FL) Reporter Assay A, % inhibition” value on full-length human RORγt [2] (setting [5]) is 106*** %. Further, the IC50 on full-length human RORγt [2] worked out at 5 nM.

As for `C[C@@H]1CCCN1C(=O)c1nc(C(=O)NCC(C)(C)O)sc1-c1ccc(C(O)(C(F)(F)F)C(F)(F)F)c(Cl)c1Cl` [Example 2/16, (R)-5-(2,3-dichloro-4-(1,1,1,3,3,3-hexafluoro-2-hydroxypropan-2-yl)phenyl)-N-(2-hydroxy-2-methylpropyl)-4-(2-methylpyrrolidine-1-carbonyl)thiazole-2-carboxamide], the “RORγt (FL) Reporter Assay A, % inhibition” value at full-length human RORγt [2] (** 2 μM compound concentration) is on record as 86** %.

As to `CCN(CC)C(=O)c1nc(C(=O)N2C[C@H](O)C[C@H](O)C2)sc1-c1ccc(C(O)(C(F)(F)F)C(F)(F)F)c(Cl)c1Cl` [Example 3/4], in assay [1], the Kd worked out at 10 nM. Moreover, the “RORγt (FL) Reporter Assay A, % inhibition” value at full-length human RORγt [2] (** 2 μM compound concentration) is 100** %. Moreover, the IC50 on full-length human RORγt [2] was 14 nM.

In the case of `O=C(NC1CS(=O)(=O)C1)c1nc(C(=O)N2CCC(F)CC2)c(-c2ccc(C(O)(C(F)(F)F)C(F)(F)F)c(Cl)c2Cl)s1` [Example 6/1, 5-(2,3-Dichloro-4-(1,1,1,3,3,3-hexafluoro-2-hydroxypropan-2-yl)phenyl)-N-(1,1-dioxidothietan-3-yl)-4-(4-fluoropiperidine-1-carbonyl)thiazole-2-carboxamide], in assay [3], the 50% inhibitory concentration (IC50) is 42 nM.

For the molecule `C[C@H]1CC(F)(F)CN1C(=O)c1nc(C(=O)N2C[C@H](O)C[C@H](O)C2)sc1-c1ccc(C(O)(C(F)(F)F)C(F)(F)F)cc1C(F)(F)F` [Example 9/1, ((S)-4,4-Difluoro-2-methylpyrrolidin-1-yl)(2-((3R,5S)-3,5-dihydroxypiperidine-1-carbonyl)-5-(4-(1,1,1,3,3,3-hexafluoro-2-hydroxypropan-2-yl)-2-(trifluoromethyl)phenyl)thiazol-4-yl)methanone], the IC50 in assay [3] is 13 nM.

For the molecule `C[C@H]1CCCN1C(=O)c1nc(C(=O)NCC(C)(C)O)sc1-c1ccc(C(O)(C(F)(F)F)C(F)(F)F)cc1C(F)F` [Example 15, (S)-5-(2-(Difluoromethyl)-4-(1,1,1,3-hexafluoro-2-hydroxypropan-2-yl)phenyl)-N-(2-hydroxy-2-methylpropyl)-4-(2-methylpyrrolidine-1-carbonyl)thiazole-2-carboxamide], the IC50 in assay [3] came to 47 nM.

Consider `C[C@H]1CCCN1C(=O)c1nc(C(=O)NCC(C)(C)O)sc1-c1ccc(C(O)(C(F)(F)F)C(F)(F)F)cc1Cl` [Example 15/10, (S)-5-(2-Chloro-4-(1,1,1,3,3,3-hexafluoro-2-hydroxypropan-2-yl)phenyl)-N-(2-hydroxy-2-methylpropyl)-4-(2-methylpyrrolidine-1-carbonyl)thiazole-2-carboxamide], for which the Kd in assay [1] is 0.26 nM. The “RORγt (FL) Reporter Assay B or C, % inhibition” value on full-length human RORγt [4] (* 3 μM compound concentration) is 97* %. Further, on full-length human RORγt [4], the concentration for half-maximal inhibition (IC50) turned out to be 7.9 nM.

Regarding `Cc1cc(C(O)(C(F)(F)F)C(F)(F)F)ccc1-c1sc(C(=O)NCC(C)(C)O)nc1C(=O)N1CCC[C@@H]1C` [Example 19, (S)-5-(4-(1,1,1,3,3,3-Hexafluoro-2-hydroxypropan-2-yl)-2-methylphenyl)-N-(2-hydroxy-2-methylpropyl)-4-(2-methylpyrrolidine-1-carbonyl)thiazole-2-carboxamide], the 50% inhibitory concentration (IC50) in assay [3] (IL-17 in supernatant, 3 days culture) stood at 55 nM.

On to `Cc1cc(C(O)(C(F)(F)F)C(F)(F)F)ccc1-c1sc(C(=O)NCC(C)(C)O)nc1C(=O)N1CCCC[C@@H]1C` [Example 21/2, (S)-5-(4-(1,1,1,3,3,3-Hexafluoro-2-hydroxypropan-2-yl)-2-methylphenyl)-N-(2-hydroxy-2-methylpropyl)-4-(2-methylpiperidine-1-carbonyl)thiazole-2-carboxamide], for which the dissociation constant Kd in assay [1] worked out at 0.21 nM. The “RORγt (FL) Reporter Assay B or C, % inhibition” value at full-length human RORγt [4] (* 3 μM compound concentration) is on record as 101* %. Further, the half-inhibitory concentration (IC50) on full-length human RORγt [4] was 3.9 nM.
